# Where a SMILES comes first, the peptide text is derived from it. [ ]: non-standard residue; d: D form. pGlu = O=C1CC[C@@H](C(=O)O)N1
# System: rat prehypophysis (anterior pituitary) cells
# Experiment: Gonadotropin (LH and FSH) releasing activity, monolayer culture of rat prehypophysis cells, radioimmunoassay of the supernatant
# Format: cell-based
# Description: The synthetic or natural decapeptides prepared in Example 1 was dissolved in 1N acetic acid so that the concentration was 1 μg/ml.
# A series of half dilutions from 10.24 ng/ml to 10 pg/ml was prepared from the above solution.
# Each sample solution in the series was dried in a rotary evaporator by evaporating 1N acetic acid.
# The releasing activity was measured by monolayer culture method using rat prehypohysis cells. After rat prehypophysis cells were disperesed with tripsin and Viokase, the dispersed cells were washed well with a culture medium [Dulbecco's modified Eagle's medium (DMEM) containing 100 unit/ml gentamicin, 2.5 μ/ml fungizone, 5% horse serum, 5% human serum, and 2.5% fetal bovine serum]. The cells were inoculated at a density of 5×10^4 cells in each well of a plastic culture tray having 96 wells and precultured for 4 days.
# Samples to be tested for gonadotropin releasing activity were added to the fifth-day culture and the culture was further incubated for 24 hours at 37° C. in the presence of 5% CO2.
# On the fifth day of the culture the above dried peptide sampls were dissolved in 0.5 ml of the Dulbecco's modified Eagle's medium (DMEM), 0.2 ml of aligot was aded to each well, and the cells were cultured in the well for additional 24 hours.
# After the culture, the supernatent of the culture was withdrawn and assayed for LH and FSH with the radio imunoassay kit provided by NIH.
# [1] = 24 hours incubation, LH and FSH by radioimmunoassay
smiles,measurement,setting,value
"NC(=O)CNC(=O)[C@@H]1CCCN1C(=O)[C@H](Cc1ccc(O)cc1)NC(=O)[C@H](Cc1c[nH]c2ccccc12)NC(=O)CNC(=O)[C@H](Cc1c[nH]cn1)NC(=O)[C@H](CO)NC(=O)[C@H](Cc1c[nH]c2ccccc12)NC(=O)[C@H](Cc1c[nH]cn1)NC(=O)[C@@H]1CCC(=O)N1 [decapeptide of the present invention, pGlu-His-Trp-Ser-His-Gly-Trp-Tyr-Pro-Gly-NH2] ([pGlu]HWSHGWYPG-NH2)",lowest detectable amount,[1],160 pg/mL
same,specific activity at the half maximum dose,[1],3.1 ng/mL
same,"LH and FSH releasing activity, specific activity relative to conventional LH-RH",% of the conventional LH-RH in specific activity,30%
same,gonadotropin-releasing potency relative to mammalian LHRH,"bioassay with rat anterior pituitary cells, % of that of mammalian LHRH",about 32%
same,gonadotropin-releasing potency relative to chicken LHRH,"bioassay with rat anterior pituitary cells, times more potent than chicken LHRH",8 times
same,LH releasing activity at the maximum dose relative to control,"maximum dose, bigger than that of the control",about 3.5 times
same,LH releasing activity at the maximum dose,"maximum dose, control 200 ng/ml LH",3200 ng/ml LH
same,activity of the purified relative to the starting material,"purified from chicken hypothalamus extract, times more than the starting material",about 15×10^8 times
